Reference: patent US6368831B1, “Treatment of hyperproliferative disorders” (Childrens Hospital Los Angeles, priority 1998, dated 2002)

Assays:
[1] = system: SMS-LHN neuroblastoma cell line; test: Ceramide assay, SMS-LHN; assay type: cell-based, human; conditions: SMS-LHN (drug sensitive); 10 μM fenretinide; 20% O2
Description: (§1) The ceramide assay is carried out as follows. 500,000 neuroblastoma cells/well are replicate plated in six-well tissue culture plates and allowed to attach overnight. Tritiated (3H)-palmitic acid (a lipid precursor) is added to 1 microcure/cc and fenretinide added to a final concentration of 10 uM. Control cells receive tritiated label but no drug. At the indicated time, cells are harvested from triplicate wells, washed, and lipids extracted with methanol, acetic acid, water, and chloroform. The organic layer (containing the tritium label incorporated into lipids) is isolated and dried down by a nitrogen stream. The lipid sample is dissolved in chloroform: methanol and 10% of each sample assayed to estimate the total tritium in the lipid sample. The lipids in sample fractions, together with unlabeled ceramide standards, are then separated by thin layer chromatography and the plates developed by iodine vapor. The region of the plate corresponding to the ceramide standard is scraped and the tritium of the co-migrating sample ceramide is measured. Total sample ceramide is then expressed as percent tritium label in ceramide versus tritium in total lipid. […]

[2] = system: MCF7/GCS cells; test: DIMSCAN cytotoxicity assay, MCF7/GCS tet OFF vs tet ON; assay type: cell-based, human; conditions: 96 hours, P<0.005 at >6 μM HPR, safingol 0-4 μM
Excerpt: We have shown that HPR generates ceramide in neuroblastoma tumor cell lines in a dose- and time-depenent manner (B. Maurer et al., J. Natl. Cancer Inst. (1999)(in press)). Glucosylceramide (GC) is a nontoxic metabolite of ceramide. Ceramide is converted into glucosylceramide by the action of glucosylceramide synthase (GCS). Glucosylceramide synthase (GCS) has been transfected into human MCF7 breast cancer cells in a tetracycline-inducible expression construct in the MCF7/GCS cell line (Y. Liu et al., J. Biol. Chem. 274:1140-46 (1999)). […] We have exposed MCF7/GCS cells to HPR, safingol and HPR+safingol in the absence, and in the presence, of doxycycline.
Methods. MCF7/GCS cells were plated and incubated in RPMI medium with 10% fetal bovine serum and 200 microgram/ml Hygromycin B (tet OFF) for DIMSCAN cytotoxicity assays as previously described. To increase GCS expression, MCF7/GCS cells were also incubated in the above medium with 3 microgram/ml doxycycline (tet ON) for three days prior to replating them for DIMSCAN cytotoxicity assay. DIMSCAN assays with doxycycline-induced (tet ON) cells also included 3 microgram/ml doxycycline in the medium. Both “tet OFF” and “tet ON” MCF7/GCS cells were exposed to HPR, safingol and HPR+safingol (3:1 molar ratio) for 96 hours and assayed for survival fraction by DIMSCAN as previously described.

[3] = system: CHLA-90 neuroblastoma cell line; test: Ceramide assay, CHLA-90; assay type: cell-based, human; conditions: CHLA-90 (drug resistant); 10 μM fenretinide; 20% O2
Description: as §1

[4] = system: CHLA-90 neuroblastoma cells; test: DIMSCAN cytotoxicity assay, CHLA-90; assay type: cell-based; conditions: HPR 3-10 μM, BOC-d-fmk 40 μM, +24 hours, P=0.002 at 3 μM, P<0.001 at >3 μM
Description: Cytotoxicity is determined using the DIMSCAN assay system (R. Proffitt et al., Cytometry 24, 204-213 (1996); T. Frgala et al., Proc. AACR, 36, 303 (1995). The system employs digital imaging microscopy to quantify viable cells, which selectively accumulate fluorescein diacetate to become brightly fluorescent. The system is capable of measuring cytotoxicity over a 4-5 log dynamic range by quenching the residual fluorescence of dead and dying cells with eosin Y and quantifying the total fluorescence of viable cells using digital thresholding. Measured fluorescence is directly proportionate to the number of viable cells. A comparison of the total fluorescence of a drug-treated cell population to the fluorescence of a similar number of untreated cells yields a survival fraction. In brief, 5000 to 10,000 SK-N-RA neuroblastoma cells/well are replicate plated into 60 wells of a 96-well tissue culture plate in 0.1 cc media and allowed to attach overnight. Drug(s) are then added in 0.05 cc media to the final concentrations indicated. There are 12 wells treated per drug concentration. Twelve wells receive drug-vector only to the appropriate final concentration and serve as controls for the plate. Cells are incubated for 96-120 hours at 37° C. in 5% CO2. Fluorescein diacetate is then added to each well in 0.05 cc media to a final concentration of 8 microgram/cc. Cells are incubated for a further 15 minutes at 37° C. and 0.03 cc of 0.5% eosin Y is added to each well. Total fluorescence of viable cells is then measured by digital imaging microscopy.
Methods. Cells were added in 100 μL whole medium per well to 96-well microplates for DIMSCAN cytotoxicity assay as previously described. Cell lines used were the neuroblastoma cell lines CHLA-90 and LAN-6. At Time=0, either all-trans-retinoic acid (ATRA), 13-cis-retinoic acid (13-cis-RA) or a combination of retinoid plus safingol at a 3:1 molar ratio were added in 50 μL whole medium. Plates were incubated and assayed for cytotoxicity by DIMSCAN assay at +120 for CHLA-90 cells and+144 hours for LAN-6 cells.
Methods. To determine the manner in which 4-HPR or HPR+safingol induced cell death in neuroblastoma cells, morphological evidence of apoptosis and/or necrosis was assessed in CHLA-90 cells in the presence or absence of a specific as inhibitor of apoptosis, the neural cell-penetrant, pan-caspase enzyme inhibitor, BOC-d-fink (Enzyme Systems Products, Livermore, Calif.). […] CHLA-90 cells were plated in duplicate in whole medium in Lab Tek chamber slides (Nunc, Naperville, Ill.), allowed to attach for 24 hours, and then treated in the presence or absence of BOC-d-fink (40 μM) for one hour prior to treatment with HPR (10 μM). Control cells were treated with vehicle solvents of 0. 1% ethanol (4-HPR) and/or 0.2% DMSO (BOC-d-fink). Morphological features of apoptosis (DNA condensation and/or apoptotic bodies) were visualized in undetached cells at +24 or +48 hours using blue nuclear fluorescence induced by the supravital DNA stain Hoechst 33342 (10 μg/ml for 30 mins at 37° C.), while necrotic cells and advanced apoptotic cells were recognized by red fluorescent staining with propidium iodide (0.5 μM/ml). Red fluorescently-staining cells with condensed nuclear remnants were scored as apoptotic cells. For cells assayed at +48 hours, additional BOC-d-fink (40 μM) or appropriate control vehicle was added at +24 hours. Cells were observed using filters appropriate for each dye sequentially on an Olympus Vanox epifluorescence microscope. Mutiple random fields of cells (of ˜100-500 cells each) were counted and photographed for viable cells, apoptotic cells, and necrotic cells. To further examine cells treated with HPR, cytotoxicity assays were performed on CHLA-90 cells pretreated with or without 40 μM BOC-d-fmk for one hour prior to the addition of 4-HPR (3-10 μM) and assayed at +24 hours by DIMSCAN assay to assess the effect of caspase inhibition on viability. […]

CC1=C(/C=C/C(C)=C/C=C/C(C)=C/C(=O)Nc2ccc(O)cc2)C(C)(C)CCC1 [HPR, all-trans-N-(4-hydroxyphenyl)retinamide]
ceramide generation [1]: generate ceramide | change of cytotoxicity in tet ON (doxycycline, GCS induced) compared to tet OFF cells [2]: significantly decreased | ceramide generation [3]: generate ceramide | cytotoxicity in the presence of BOC-d-fmk [4]: significant cytotoxicity
